In patent US11219580B2, “Oral composition” (Andalay Technologies Limited, priority 2016, dated 2022):
Read-outs that look alike come from different tables or passages of the source.

Experiments:
[1] = Dissolution Test 2: release of active ingredients from sports-gel style mouthwash (protocol 1B) under simulated mastication, QTOF-UHPLC; type: physicochemical; conditions: for release profile from sports-gel style mouthwash: 10 g mouthwash of protocol 1B in 100 mL stirred water at 37° C., samples 10-600 s, FIGS. 7-11; for relative release profile, order of release: protocol 1B mouthwash, peak-normalised plots, FIG. 12
Protocol: A sports-gel style mouthwash was prepared according to protocol 1B described above. In order to measure the release of the active ingredients from the mouthwash, it was necessary to recreate the mastication conditions of the mouth. The following protocol was employed for this purpose: • i. Whilst stirring with a 3.5 cm magnetic stirrer set at the “7” rotation setting, heat 100 mL of water to 37° C. in a beaker. • ii. Aspirate 1 mL of solution using a pipette to obtain a standard sample. • iii. Add 10 g of the sports-gel style mouthwash prepared according to protocol 1B to the heated water. • Aspirate 1 mL of the resultant solution at time intervals of t=10, 20, 40, 60, 90, 120, 150, 180, 210, 240, 270, 300, 360 and 600 seconds, ensuring that the samples are taken from the outermost rim of the beaker.
Prior to mass spectrometry analysis, the samples and standards obtained were diluted 1 part in 10 in acetonitrile (ACN). All concentrations given below for the calibration are of these diluted solutions.
All samples and calibration standards were injected in the following order: triplicate injections of full calibration standards from low to high concentration, triplicate injection of acetonitrile blank, triplicate injection of sample series B in timeline sequence (each with a single blank in between), single injection of full calibration standards from low to high concentration, triplicate injection of blank acetonitrile, triplicate injection of sample series B in timeline sequence (each with a single blank in between). The reason for the second, shorter, series of calibration standards was to determine if there was any significant decrease in sensitivity (indicated by decrease in peak area) during the batch.
The QTOF-UHPLC analysis was conducted using a MaXis HD quadrupole electrospray time-of-flight (ESI-QTOF) mass spectrometer (Bruker Daltonik GmbH, Bremen, Germany) operated in ESI positive-ion MS mode. The QTOF was coupled to an Ultimate 3000 UHPLC (Thermo Fisher Scientific, California, USA). The capillary voltage was set to 4500 V, nebulising gas at 2 bar, drying gas at 10 L/min at 200° C. The TOF scan range was from 50-750 mass-to-charge ratio (m/z). For effective transmission of ions the ion energy was set to 1.0 eV with the collision energy for TOF MS acquisition at 2.0 eV. Liquid chromatography was performed using a Kinetex […], 2.1×100 mm HILIC column (Phenomenex) with a flow rate of 0.4 mL/min at 30° C. and an injection volume of 10 μL. Mobile phases A and B consisted of 50:50 ACN:H2O with 0.2% v/v formic acid and 10 mM ammonium formate, and 95:5 ACN:H2O with 0.2% v/v formic acid and 10 mM ammonium formate, respectively. Gradient elution was carried out with 100% mobile phase B until 2 min followed by a linear gradient to 0% B at 12 mins, keeping 0% B up until 15 mins, thereafter returned to 100% B until in 20 mins total run time. The MS instrument was calibrated using a range of sodium formate clusters introduced by 10 μL loop-injection prior to the chromatographic run. The mass calibrant solution consisted of 3 parts of 1 M NaOH to 97 parts of 50:50 water:isopropanol with 0.2% formic acid. The observed mass and isotope pattern perfectly matched the corresponding theoretical values as calculated from the expected elemental formula. Most of the target compounds were detected as [M+H]^+ and [M+Na]^+ ions. Data processing was performed using the Data Analysis software version 4.3 (Bruker Daltonik GmbH, Bremen, Germany). Quantification was carried out using the peak area in the extracted ion chromatogram (EIC) of the sum of the protonated and sodiated ion of the target compound.
Using the mass spectrometry data obtained, it is possible evaluate the release profiles of the active ingredients present in the sports-gel style mouthwash under simulated mastication conditions.

rat = conditions: cited from earlier work

| Compound | release profile from sports-gel style mouthwash [1] | relative release profile, order of release [1] | LD50 rat (rat; in vivo) | LD50 rat (rat) |
| --- | --- | --- | --- | --- |
| CC12CCC(CC1)C(C)(C)O2 [Eucalyptol] | reaches its maximum concentration significantly later than, for example, the glycerol or sorbitan monolaurate | follow the release of the surfactant |  |  |
| OCC(O)CO [Glycerine, glycerol] | immediately releases into the surrounding solution and reaches its effective concentration within seconds | released immediately upon commencing mastication | 12,600 mg/kg |  |
| CC1CCC(C(C)C)C(O)C1 (centres unmarked) [Menthol] |  |  | 3,300 mg/kg |  |
| O=[N+]([O-])[O-].[K+] [Potassium nitrate] |  |  |  | 3,750 mg/kg |
| Cc1ccc(C(C)C)c(O)c1 [Thymol] | reaches its maximum concentration at a later stage of mastication |  |  |  |
| O [Water] |  |  |  | 90,000 mg/kg |
| OC[C@@H](O)[C@H](O)[C@@H](O)CO [Xylitol] | released quickly | follow the release of the surfactant | 16,500 mg/kg |  |
| Sorbitan monolaurate | fast release | the next active ingredient to reach an effective concentration |  |  |
